Assay results as given in US20090030207A1, “Polymorphs of Dolasetron base and process for preparation thereof” (priority 2007, published 2009).

Experiments:
[1] = Hygroscopicity: water content after 1 week storage at defined relative humidity; type: physicochemical; settings: for WATER CONTENT: 1 week, 25 ± 2° C.; for INITIAL water content: before storage
From the text: Hygroscopicity Table and Stability Measurements of Form G and J

[2] = type: physicochemical; settings: for CRYSTAL FORM: 100% relative humidity, 1 week, 25 ± 2° C.
From the text: ARL X-ray powder diffractometer model X'TRA-030, Peltier detector, round standard aluminum sample holder with round zero background quartz plate was used. Scanning parameters: Range: 2-40 deg. 2θ, continuous Scan, Rate: 3 deg./min. The accuracy of peak positions is defined as +/−0.2 degrees due to experimental differences like instrumentations, sample preparations etc. Hygroscopicity Table and Stability Measurements of Form G and J

SMILES | WATER CONTENT ([1]; 40% relative humidity) [%] | WATER CONTENT ([1]; 60% relative humidity) [%] | WATER CONTENT ([1]; 80% relative humidity) [%] | WATER CONTENT ([1]; 100% relative humidity) [%] | INITIAL water content [1] | crystalline stability (conversion to another polymorph upon storage) [2] | CRYSTAL FORM [2]
O=C(O[C@@H]1C[C@@H]2C[C@H]3C[C@H](C1)N2CC3=O)c1c[nH]c2ccccc12 [Form G, Dolasetron base] | <0.1 | <0.1 | <0.1 | 4.1 | INITIAL water content: 0.1% | stable polymorphic form | B >> G
O=C(O[C@@H]1C[C@@H]2C[C@H]3C[C@H](C1)N2CC3=O)c1c[nH]c2ccccc12 [Form J, Dolasetron base] | <0.1 | <0.1 | 0.2 | 5.5 | INITIAL water content: <0.1% | stable polymorphic form | B >> J
